From the supplement of paper PMC6045584
± gives the standard deviation of the averaged measurements.

Tests used:
[1] = compound: CN1CCN(c2nc(C3=C(c4c[nH]c5ccccc45)C(=O)NC3=O)c3ccccc3n2)CC1 [SOTRASTAURIN/AEB071]; assay: surviving fraction relative to DMSO-only wells; higher = less growth inhibition; settings: exposure time: 5 days
Summary of the method: (§1)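 A line counted only if its three screens reached replicate Pearson r >0.7 and median Z' >0.3. Tumour cells in log phase were seeded at 250–500 per well in 384-well plates and, after 24 hours, kept in continuous contact with inhibitors at 0.5, 1, 5, 10, 50, 100, 500 and 1000 nM for five days. Surviving fraction was taken from CellTiter-Glo luminescence relative to the median of DMSO-only wells.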

[2] = compound: CNCc1ccc(-c2[nH]c3cc(F)cc4c3c2CCNC4=O)cc1; assay: as above; settings: exposure time: 5 days
Summary of the method: as §1

Test System	surviving fraction ([1]; 0.5 nM)	surviving fraction ([1]; 1 nM)	surviving fraction ([1]; 5 nM)	surviving fraction ([1]; 10 nM)	surviving fraction ([1]; 50 nM)	surviving fraction ([1]; 100 nM)	surviving fraction ([1]; 500 nM)	surviving fraction ([1]; 1000 nM)	surviving fraction ([2]; 0.5 nM)	surviving fraction ([2]; 1 nM)	surviving fraction ([2]; 5 nM)	surviving fraction ([2]; 10 nM)	surviving fraction ([2]; 50 nM)	surviving fraction ([2]; 100 nM)	surviving fraction ([2]; 500 nM)	surviving fraction ([2]; 1000 nM)
SCC36 HEADNECK	1.03 ± 0.063	0.903 ± 0.069	1.03 ± 0.068	1.027 ± 0.0046	0.843 ± 0.039	0.77 ± 0.033	0.838 ± 0.033	0.77 ± 0.048	1.02 ± 0.15	0.999 ± 0.1	1.11 ± 0.024	1.07 ± 0.1	0.763 ± 0.057	0.728 ± 0.018	0.629 ± 0.019	0.592 ± 0.069
SCC47 HEADNECK	1.04 ± 0.046	1.12 ± 0.12	1.16 ± 0.062	1.13 ± 0.14	1.06 ± 0.07	1.08 ± 0.046	1 ± 0.031	1.05 ± 0.13	1.04 ± 0.067	1.03 ± 0.042	1.08 ± 0.048	1.12 ± 0.025	1.04 ± 0.07	1.05 ± 0.074	1.05 ± 0.032	0.987 ± 0.063
SCC90 HEADNECK	1.05 ± 0.063	0.997 ± 0.066	0.925 ± 0.099	1.01 ± 0.1	0.87 ± 0.037	0.875 ± 0.028	0.708 ± 0.033	0.676 ± 0.072	0.96 ± 0.039	1 ± 0.071	0.998 ± 0.058	1.06 ± 0.1	0.934 ± 0.13	0.916 ± 0.062	0.9207 ± 0.0047	0.948 ± 0.11
SG27 HEADNECK	1.1 ± 0.093	1.11 ± 0.04	0.984 ± 0.051	0.984 ± 0.1	1.13 ± 0.13	1.1 ± 0.041	1.15 ± 0.058	1.26 ± 0.1	1.15 ± 0.14	1.18 ± 0.21	0.878 ± 0.14	1.14 ± 0.11	0.968 ± 0.093	0.923 ± 0.03	1.05 ± 0.062	0.989 ± 0.063
SG28 HEADNECK	1.116 ± 0.011	1.107 ± 0.0035	0.956 ± 0.12	1.024 ± 0.0085	0.821 ± 0.039	0.79 ± 0.14	0.8065 ± 0.0078	0.843 ± 0.088	1.09 ± 0.1	0.995 ± 0.011	0.953 ± 0.012	1 ± 0.073	0.763 ± 0.056	0.723 ± 0.046	0.798 ± 0.086	0.76 ± 0.12
SG31 HEADNECK	1.28 ± 0.26	1 ± 0.12	1.25 ± 0.26	1.12 ± 0.23	0.935 ± 0.12	1.03 ± 0.12	1.11 ± 0.12	1.14 ± 0.032	1.31 ± 0.25	1.14 ± 0.13	1.11 ± 0.15	1.12 ± 0.092	0.922 ± 0.12	0.845 ± 0.061	0.929 ± 0.12	0.947 ± 0.09
SG32 HEADNECK	0.943 ± 0.088	1.13 ± 0.18	1.09 ± 0.22	1.05 ± 0.057	0.792 ± 0.084	0.698 ± 0.27	0.827 ± 0.13	0.795 ± 0.08	0.993 ± 0.27	1.01 ± 0.2	0.984 ± 0.17	1.02 ± 0.035	0.704 ± 0.061	0.716 ± 0.14	0.682 ± 0.075	0.566 ± 0.17
SG43 HEADNECK	1.21 ± 0.12	0.963 ± 0.1	0.92 ± 0.087	0.761 ± 0.09	0.961 ± 0.15	1.14 ± 0.21	1.31 ± 0.11	1.15 ± 0.088	1.13 ± 0.22	1.05 ± 0.17	0.927 ± 0.14	0.82 ± 0.18	1.06 ± 0.26	1.13 ± 0.24	1.15 ± 0.14	1.46 ± 0.17
SIHA CERVIX	0.988 ± 0.039	1 ± 0.12	1.12 ± 0.041	1.06 ± 0.1	0.935 ± 0.055	0.989 ± 0.0056	0.944 ± 0.048	0.849 ± 0.05	0.984 ± 0.028	1.06 ± 0.13	1.09 ± 0.03	1.01 ± 0.035	0.907 ± 0.064	0.934 ± 0.023	1.03 ± 0.021	0.832 ± 0.037
SJSA1 BONE	1.72 ± 0.087	1.64 ± 0.046	1.64 ± 0.092	1.56 ± 0.13	0.992 ± 0.068	1.13 ± 0.029	1.7 ± 0.041	0.205 ± 0.018	1.35 ± 0.059	1.7 ± 0.1	1.6 ± 0.045	1.8 ± 0.1	1.7 ± 0.073	1.76 ± 0.059	1.65 ± 0.017	1.74 ± 0.068
SKBR3 BREAST	1.12 ± 0.05	0.9717 ± 0.0031	1 ± 0.068	1.07 ± 0.15	0.782 ± 0.085	0.84 ± 0.11	0.818 ± 0.086	0.849 ± 0.12	0.907 ± 0.11	0.895 ± 0.12	0.9 ± 0.14	0.841 ± 0.11	0.703 ± 0.1	0.813 ± 0.052	0.733 ± 0.14	0.734 ± 0.026
SNU475 LIVER	0.996 ± 0.06	1.04 ± 0.055	1.01 ± 0.042	1.03 ± 0.034	0.9037 ± 0.0085	0.873 ± 0.029	0.932 ± 0.04	0.908 ± 0.046	0.999 ± 0.052	0.982 ± 0.039	0.992 ± 0.065	0.99 ± 0.026	0.919 ± 0.027	0.916 ± 0.028	0.863 ± 0.053	0.892 ± 0.043
SUM44 BREAST	1.03 ± 0.23	1.04 ± 0.21	1.13 ± 0.2	1.03 ± 0.19	0.895 ± 0.057	0.962 ± 0.054	1.02 ± 0.1	1.03 ± 0.092	0.927 ± 0.097	0.981 ± 0.098	1.01 ± 0.14	1.02 ± 0.11	0.841 ± 0.088	0.911 ± 0.027	0.892 ± 0.061	0.896 ± 0.042
SUM149 BREAST	0.923 ± 0.17	0.901 ± 0.054	0.892 ± 0.11	0.896 ± 0.088	0.932 ± 0.1	0.851 ± 0.025	0.893 ± 0.062	0.882 ± 0.031	0.887 ± 0.032	0.997 ± 0.037	0.778 ± 0.039	0.779 ± 0.1	0.673 ± 0.067	0.665 ± 0.088	0.497 ± 0.033	0.494 ± 0.014
SUM149.B1*.S BREAST	1.11 ± 0.028	1.08 ± 0.06	1.06 ± 0.093	1.07 ± 0.061	1.11 ± 0.059	1.04 ± 0.024	1.04 ± 0.1	1.03 ± 0.042	1.12 ± 0.023	1.1 ± 0.022	1.07 ± 0.045	1.1 ± 0.045	1.01 ± 0.04	1.02 ± 0.033	0.94 ± 0.053	1 ± 0.056
SUM159 BREAST	1.1 ± 0.02	1.12 ± 0.028	1.11 ± 0.016	1.08 ± 0.026	1.06 ± 0.021	1.09 ± 0.015	1.07 ± 0.028	1.04 ± 0.021	1.09 ± 0.024	1.1 ± 0.027	1.09 ± 0.035	1.07 ± 0.02	1.06 ± 0.044	1.04 ± 0.0053	1.06 ± 0.019	1.05 ± 0.018
